Measured values published in US10906977B2, “Enhancing the therapeutic activity of immune checkpoint inhibitor” (Maine Medical Center Research Institute, priority 2016, dated 2021).

Legend:
[1] = system: chick chorioallantoic membrane (CAM); experiment: Chick CAM angiogenesis induced by soluble RGD collagen peptides; type: in vivo
Description: (§1) The chick chorioallantoic membrane (CAM) assays were carried out with some modifications (19). For all experiments CAMs of 10-day-old chick embryos obtained from Charles River (North Franklin, Conn.) were separated from the shell membrane. Filter discs either non-treated (inflammation assays) pretreated (angiogenesis assays) with cortisone acetate (3.0 mg/ml) containing RPMI only or FGF-2 (40 ng). CAMs were either non-treated or treated topically with Mab XL313, XL166 or a non-specific control antibody (10 μg/embryo every 24 h for three consecutive treatments). […] At the end of the incubation period the embryos were sacrificed and the CAM tissues were analyzed. Angiogenesis was quantified by counting the number of angiogenic branching blood vessels within the area of the filter disc. The angiogenic index was determined by subtracting the mean number of blood vessel branch points from untreated CAMs from each experimental condition. Eight to twelve embryos were used per condition and experiments were repeated at least three times.

[2] = biological target: T1, β3-integrin (Homo sapiens, UniProt P05106+P06756); experiment: β3-integrin phosphorylation in endothelial cells attached to collagen peptides (Western blot); type: cell-based; settings: absence of growth factors; FIG. 7C
T1 construct: endogenous in cells; host or cells: HUVEC
Description: (§2) Endothelial cells (HUVECs or HRMVECs) were incubated in serum free media with 1 mM MgCl2, 0.2 mM MnCl2 in the presence of a Src inhibitor, PP2, (10 μM) a P38MAPK inhibitor, SB202190 (10 μM) or vehicle only (DMSO) for 10 min at 37° C. Treated cells were then seeded on to immobilized P-1 and P-2 and lysates were collected at 15 min.
(§3) Whole cell and CAM tissue lysates were collected in RIPA buffer supplemented with 1× protease inhibitor and 1× phosphatase inhibitor and were run on polyacrylamide gels using denaturing conditions. Prior to loading the gels, 6× sample buffer was added to each of the lysates (final concentration 1×) and boiled for five minutes. Twenty to 50 μg of total protein were loaded into each lane. […] Gels were run at 60 volts (v) until the dye front passed through the stacking gel, and then the voltage was increased to 100V for the remainder of the separation. Precision Plus protein standards (Bio-Rad) were used to visualize migration. Protein was transferred to nitrocellulose membranes using a wet tank system and blocked for 1 h using 10% non-fat dried milk in tris-buffered saline with 0.01% Tween-20 (TBS-T). […] Membranes were washed 3 times in TBS-T for five minutes. Blots were then incubated with HRP conjugated secondary antibodies (1:15000) in 1% non-fat milk in TBS-T for 1 h. […] Western blot bands were quantified using Image J software based on pixel intensity.

[3] = system: endothelial cells (HUVECs); experiment: Actin stress fiber formation in endothelial cells attached to collagen peptides; type: cell-based, human; settings: FIG. 7G
Description: CAMs examined for accumulation of granulation tissue were harvested, fixed in 4% PFA and paraffin embedded and sectioned (4 μm) and stained with Giemsa. CAM tissues analyzed via immunofluorescence were harvested, embedded with OCT, snap frozen and sectioned ([…]). Frozen sections were fixed in 50% methanol/50% acetone, air dried and blocked with 2.5% BSA for 1 h at 37° C. For expression of the XL313 and XL166 epitopes as well as monocyte/macrophages, FGF-2 stimulated CAM tissues were stained with Mabs XL313, XL166 (50 μg/ml) or KUL1 (1:250) and then incubated with Alexa-488 labeled secondary antibodies (1:2000 dilution). Co-staining of monocytes/macrophages and the Mab XL313 reactive epitope in FGF-2 stimulated CAMs was performed by sequential staining by first probing with KUL1 (1:250) and then with a biotinconjugated Mab XL313 (50 μg/ml), and with secondary antibodies Alexa-488 and streptavidin Alexa-594 (1:2000) respectively. Using a similar strategy, sections of RGD peptide-treated CAM tissues were analyzed for phosphorylated-P38MAPK in angiogenic vessels by co-incubation of anti-phospho-P38MAPK (1:50) and anti-vWf (1:500) antibodies. […] Cells were allowed to attach for 15, 30, or 60 min in the absence of serum and were fixed with 4% PFA. Fixed cells were washed and blocked with 2.5% BSA and stained with anti-YAP (1:200) and phalloidin (1:500). […]

[4] = system: P38MAPK; experiment: Phosphorylated P38MAPK in HUVECs attached to collagen peptides (Western blot); type: cell-based, human; settings: cells attached to peptide; FIG. 6D
Description: as §2, §3

[5] = system: PD-L1; experiment: PD-L1 in control and β3 integrin knock down T-cells stimulated with peptide (western blot); type: cell-based, human; settings: FIG. 33
Description: In order to confirm the functional role of integrin αvβ3 receptor in regulating the levels of the immune suppressive molecule PD-L1 by the XL313 cryptic collagen peptide P2, the expression of PD-L1 was examined in β3 integrin knock down and control transfected T-cells. Whole cell lysates from control transfected (Cont T-cells) and β3 integrin shRNA transfected T-cells (β3/KD) that were stimulated with control peptide (PC) or the XL313 cryptic collagen peptide (P2) were analyzed by western blot for expression of PD-L1.

[6] = system: P38MAPK; experiment: Phosphorylated P38MAPK in HRMVEC attached to collagen peptides (Western blot); type: cell-based, human; settings: cells attached to peptide; FIG. 6E
Description: as §2, §3

[7] = system: YAP; experiment: Nuclear YAP in endothelial cells attached to collagen peptides; type: cell-based, human
Description: Whole cell and CAM tissue lysates were collected in RIPA buffer supplemented with 1× protease inhibitor and 1× phosphatase inhibitor and were run on polyacrylamide gels using denaturing conditions. Prior to loading the gels, 6× sample buffer was added to each of the lysates (final concentration 1×) and boiled for five minutes. Twenty to 50 μg of total protein were loaded into each lane. […] Gels were run at 60 volts (v) until the dye front passed through the stacking gel, and then the voltage was increased to 100V for the remainder of the separation. Precision Plus protein standards (Bio-Rad) were used to visualize migration. Protein was transferred to nitrocellulose membranes using a wet tank system and blocked for 1 h using 10% non-fat dried milk in tris-buffered saline with 0.01% Tween-20 (TBS-T). […] Membranes were washed 3 times in TBS-T for five minutes. Blots were then incubated with HRP conjugated secondary antibodies (1:15000) in 1% non-fat milk in TBS-T for 1 h. Membranes were washed a second time as indicated above and exposed to chemiluminecent substrate for three minutes prior to exposure to autoradiography film in a dark room. Western blot bands were quantified using Image J software based on pixel intensity.

[8] = biological target: T2, integrin αvβ3 (Homo sapiens, UniProt P05106+P06756); experiment: Solid phase ELISA, recombinant integrin αvβ3 binding to immobilized peptide P-2; settings: peptide immobilized 100 μg/ml; FIG. 30
T2 construct: purchased R&D Systems (Minneapolis, Minn.)
Description: The cryptic collagen peptide P-2 was immobilized (100 μg/ml) on microtiter wells and increasing concentrations of recombinant integrin αvβ3 was added and integrin binding was quantified. Data bars indicate mean integrin binding±standard deviation from triplicate wells.
The cryptic collagen peptide P-2 was immobilized (100 μg/ml) on microtiter wells and recombinant integrin αvβ3 was added and it was allowed to bind in the presence (50 μg/ml) or absence of Mab X1313 or control antibody (Mab XL166 directed to other collagen RGD peptides). Data bars indicate mean integrin binding±standard deviation from triplicate wells.

[9] = system: T-cell (Jurkat); experiment: T-cell migration on denatured collagen type-IV (transwell); type: cell-based, human; settings: P2 1.0 ug/ml; FIG. 34
Description: Membranes of transwell migration chambers were coated with denatured collagen type-IV to mimic the altered basement membrane in tumor vessels. Left). T-cell (Jurkat) migration in the presence or absence of the cryptic collagen peptide P2 (1.0 ug/ml) and/or Mab XL313 and non-specific control antibody (50 μg/ml). Right). T-cell (Jurkat) migration in the presence or absence of Raw macrophage concentrated conditioned medium (CM) and/or Mab XL313 and non-specific control antibody (50 μg/ml). Data bars represent mean cell migration+SE from triplicate wells.

[10] = system: chick chorioallantoic membrane (CAM); experiment: Chick CAM inflammation induced by soluble RGD collagen peptides; type: in vivo; settings: FIG. 5D
Description: as §1

T2 sequence (P06756 31-992 limits assumed): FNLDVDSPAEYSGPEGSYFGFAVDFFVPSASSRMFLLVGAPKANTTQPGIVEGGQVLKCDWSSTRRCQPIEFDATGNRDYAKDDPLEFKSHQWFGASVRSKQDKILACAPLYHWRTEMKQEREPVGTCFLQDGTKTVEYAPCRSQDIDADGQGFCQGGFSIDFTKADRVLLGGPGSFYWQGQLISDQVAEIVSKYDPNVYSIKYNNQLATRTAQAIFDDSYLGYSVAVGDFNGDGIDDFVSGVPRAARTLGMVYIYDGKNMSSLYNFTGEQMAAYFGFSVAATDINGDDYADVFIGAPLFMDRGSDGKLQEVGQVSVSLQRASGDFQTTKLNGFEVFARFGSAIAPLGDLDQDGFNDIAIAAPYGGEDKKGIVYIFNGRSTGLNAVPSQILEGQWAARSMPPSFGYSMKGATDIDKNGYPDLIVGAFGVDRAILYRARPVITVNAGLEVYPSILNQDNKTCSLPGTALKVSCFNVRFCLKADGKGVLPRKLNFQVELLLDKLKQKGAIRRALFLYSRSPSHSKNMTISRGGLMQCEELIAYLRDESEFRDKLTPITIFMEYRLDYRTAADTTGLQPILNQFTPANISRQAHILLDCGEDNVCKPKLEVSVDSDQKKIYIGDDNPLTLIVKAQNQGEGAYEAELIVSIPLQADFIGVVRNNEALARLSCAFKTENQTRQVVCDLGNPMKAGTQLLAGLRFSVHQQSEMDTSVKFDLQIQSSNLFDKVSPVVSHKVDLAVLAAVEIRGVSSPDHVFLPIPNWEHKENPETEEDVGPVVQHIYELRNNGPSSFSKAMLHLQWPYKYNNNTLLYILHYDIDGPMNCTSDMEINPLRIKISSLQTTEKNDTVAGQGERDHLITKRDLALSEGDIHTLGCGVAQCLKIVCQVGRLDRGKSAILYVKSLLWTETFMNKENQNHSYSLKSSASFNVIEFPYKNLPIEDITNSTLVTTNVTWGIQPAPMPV
T2 sequence (P05106 27-718 limits assumed): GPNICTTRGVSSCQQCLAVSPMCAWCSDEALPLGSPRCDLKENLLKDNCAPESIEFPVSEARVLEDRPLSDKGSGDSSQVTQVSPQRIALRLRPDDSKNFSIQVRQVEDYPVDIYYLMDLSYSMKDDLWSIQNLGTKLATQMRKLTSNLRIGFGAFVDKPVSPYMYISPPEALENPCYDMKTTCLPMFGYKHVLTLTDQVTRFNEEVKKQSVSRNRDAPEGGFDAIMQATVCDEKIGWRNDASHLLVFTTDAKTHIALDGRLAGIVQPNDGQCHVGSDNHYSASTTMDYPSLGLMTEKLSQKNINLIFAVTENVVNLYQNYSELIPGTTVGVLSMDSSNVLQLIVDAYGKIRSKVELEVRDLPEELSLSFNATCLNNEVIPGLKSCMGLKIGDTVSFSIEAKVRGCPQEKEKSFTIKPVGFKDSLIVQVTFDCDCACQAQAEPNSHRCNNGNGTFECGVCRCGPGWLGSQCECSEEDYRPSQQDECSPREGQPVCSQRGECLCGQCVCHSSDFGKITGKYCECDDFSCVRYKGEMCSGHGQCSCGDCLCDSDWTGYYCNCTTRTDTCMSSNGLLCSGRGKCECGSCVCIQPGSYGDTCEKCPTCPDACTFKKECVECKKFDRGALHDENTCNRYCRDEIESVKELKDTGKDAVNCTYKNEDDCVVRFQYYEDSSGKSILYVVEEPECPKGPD
T1 sequence (P05106 27-788): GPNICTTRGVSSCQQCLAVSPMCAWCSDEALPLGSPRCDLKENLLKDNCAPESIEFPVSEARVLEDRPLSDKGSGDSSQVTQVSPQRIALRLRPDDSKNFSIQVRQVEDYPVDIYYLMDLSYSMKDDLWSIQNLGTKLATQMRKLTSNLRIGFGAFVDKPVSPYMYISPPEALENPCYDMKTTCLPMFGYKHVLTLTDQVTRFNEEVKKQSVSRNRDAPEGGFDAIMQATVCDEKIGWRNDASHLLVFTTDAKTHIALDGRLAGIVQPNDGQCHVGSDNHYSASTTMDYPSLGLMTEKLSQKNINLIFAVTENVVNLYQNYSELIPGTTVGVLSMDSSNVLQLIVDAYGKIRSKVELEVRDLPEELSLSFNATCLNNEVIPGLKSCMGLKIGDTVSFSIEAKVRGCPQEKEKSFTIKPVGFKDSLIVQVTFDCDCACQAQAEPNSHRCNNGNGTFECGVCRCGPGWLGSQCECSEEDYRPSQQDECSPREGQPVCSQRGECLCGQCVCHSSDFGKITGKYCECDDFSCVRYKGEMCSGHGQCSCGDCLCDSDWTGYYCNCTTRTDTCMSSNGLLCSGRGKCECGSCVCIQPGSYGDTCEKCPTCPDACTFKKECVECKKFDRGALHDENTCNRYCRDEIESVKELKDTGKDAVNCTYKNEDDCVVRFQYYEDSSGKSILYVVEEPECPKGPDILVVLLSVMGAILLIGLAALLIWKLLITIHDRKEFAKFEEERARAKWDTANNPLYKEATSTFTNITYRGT
T1 sequence (P06756 31-889 limits assumed): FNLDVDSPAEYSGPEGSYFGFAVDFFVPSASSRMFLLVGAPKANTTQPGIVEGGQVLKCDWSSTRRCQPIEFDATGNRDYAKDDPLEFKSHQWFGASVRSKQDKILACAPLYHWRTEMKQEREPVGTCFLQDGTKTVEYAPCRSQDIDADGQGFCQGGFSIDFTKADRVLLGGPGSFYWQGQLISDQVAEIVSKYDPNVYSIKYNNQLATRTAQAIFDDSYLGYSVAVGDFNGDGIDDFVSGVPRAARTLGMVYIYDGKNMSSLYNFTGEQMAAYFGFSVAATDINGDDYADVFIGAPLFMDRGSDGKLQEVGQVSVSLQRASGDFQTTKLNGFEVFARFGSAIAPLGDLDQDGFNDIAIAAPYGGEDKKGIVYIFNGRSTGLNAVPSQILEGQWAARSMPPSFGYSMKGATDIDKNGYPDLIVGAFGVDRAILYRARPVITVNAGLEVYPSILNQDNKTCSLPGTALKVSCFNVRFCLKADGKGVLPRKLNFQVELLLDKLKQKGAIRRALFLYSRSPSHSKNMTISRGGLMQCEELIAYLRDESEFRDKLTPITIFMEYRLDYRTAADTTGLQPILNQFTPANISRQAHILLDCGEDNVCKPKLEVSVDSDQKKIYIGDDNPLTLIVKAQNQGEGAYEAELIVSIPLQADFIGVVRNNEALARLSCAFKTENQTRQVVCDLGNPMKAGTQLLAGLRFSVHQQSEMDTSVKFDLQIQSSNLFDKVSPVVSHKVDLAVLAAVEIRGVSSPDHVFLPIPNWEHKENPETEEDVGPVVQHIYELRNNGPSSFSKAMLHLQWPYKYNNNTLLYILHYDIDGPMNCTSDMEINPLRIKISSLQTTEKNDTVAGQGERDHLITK
T1 sequence (P06756 891-1048 partner limits assumed): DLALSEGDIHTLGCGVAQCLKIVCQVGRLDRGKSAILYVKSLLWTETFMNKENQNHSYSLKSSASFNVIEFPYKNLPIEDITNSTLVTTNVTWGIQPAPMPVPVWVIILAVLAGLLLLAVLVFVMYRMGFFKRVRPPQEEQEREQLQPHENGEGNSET

For CQGPRGDKGEC [Mab P-2], the “dose dependent induction of CAM angiogenesis” value ([1]; FIG. 5B) was “dose dependently enhanced angiogenesis”, the “dose of maximum induction of angiogenesis” value ([1]; FIG. 5B) was 100 ng/CAM and the “induction of CAM angiogenesis as compared to no treatment” value ([1]; soluble peptide, FIG. 5C) was “induced angiogenesis”. The “increase of β3 phosphorylation as compared to P-1” value [2] was “over 3 fold”, the “actin stress fiber formation as compared to P-1” value [3] was “accelerated actin stress fiber formation” and the “phosphorylation of P38MAPK in HUVECs, as compared to P-1” value [4] was “enhanced phosphorylation of P38MAPK”. The “expression of PD-L1 in control transfected T-cells” value [5] was “enhanced expression of PD-L1”, the “expression of PD-L1 in β3 integrin knock down cells” value [5] was “little ability to enhance the expression of PD-L1” and the “phosphorylation of P38MAPK in HRMVEC, as compared to P-1” value [6] was “enhanced phosphorylation of P38MAPK”. The “nuclear localized YAP (staining) as compared to P-1” value ([7]; by 15 minutes, FIG. 8A) was “enhanced level of nuclear localized YAP”, the “increase of nuclear YAP as compared to P-1 (Western blot)” value ([7]; cells attached to peptide, FIG. 8B) was “approximately 2 fold” and the “binding of integrin receptor αvβ3 to peptide” value [8] was “dose-dependently binds”. The “effect on T-cell migration” value [9] was “inhibitory effects” and the “CAM inflammation following stimulation with peptide” value [10] was “induced inflammation to nearly that of FGF-2 stimulation”.
